# Laboratory results from US20220226339A1, “INHIBITATION OF ACID LIPASE FOR CANCER THERAPY” (Heinrich-Heine-Universität Düsseldorf, priority 2019, published 2022).
# Tests used:
# MDA-MB-231 cancer cells [1] = experiment: Cell proliferation of MDA-MB-231 cancer cells (CellTiterGlo); type: cell-based, human; details: MDA-MB-231, 3 days, 15% FCS RPMI, Lalistat concentrations descending from 50 μM, non-cell-toxic range
# Method: Cell proliferation was ascertained using Cell-TiterGlo®.
# MDA-MB-231 cancer cells were incubated with Lalistat 2 (selective LAL inhibitor) or the formulation control (mock).
# MDA-MB-231 cancer cells were incubated with Lalistat 2 (selective LAL inhibitor) or the formulation control (mock). For the formulation control, […] alone was used with the same concentration of DMSO as for Lalistat 2. 24 hours after seeding, the cancer cells were incubated for 3 days in 15% FCS-containing RPMI medium having concentrations of Lalistat descending from 50 μM or the corresponding DMSO concentration as control. Subsequently, CellTiterGlo® (Promega) was used to quantify the number of vital cancer cells.
# MDA-MB-231 cancer cells [2] = experiment: Relative expression of tumor stem cell markers and vimentin by quantitative PCR; type: cell-based, human; details: MDA-MB-231, 6 days, 50 μM Lalistat vs 0.05% DMSO
# Method: 24 hours after seeding, MDA-MB-231 cancer cells were incubated for 6 days in 15% FCS-containing RPMI medium containing 50 μM Lalistat or formulation control (0.05% DMSO). Subsequently, the relative expression of the (A-C) tumor stem cell markers ALDH1, CD44 and the ratio CD44/CD24 and of the (D) mesenchymal marker vimentin was analyzed by means of quantitative PCR. The values were normalized to the housekeepers GAPDH or HRPT1. The target was amplified in a singleplex assay using “SYBR Green”.
# The results of two independent experiments with three biological replicates in each case are depicted. Significance difference compared to formulation control: ALDH: 0.0026 (GAPDH), 0.0004 (HRPT1); CD44: […] (GAPDH/HRPT1); CD44/CD24: <0.01
# [3] = tested on: PD-L1 expression on cancer cells; experiment: PD-L1 expression on cancer cells after Lalistat treatment; type: cell-based
smiles,measurement,setting,value
"O=C(Oc1nsnc1N1CCCCC1)N1CCCCC1 [Lalistat 2, 4-(piperidin-1-yl)-1,2,5-thiadiazol-3-yl piperidine-1-carboxylate]",cell proliferation compared to formulation control,MDA-MB-231 cancer cells [1],antiproliferative effect
same,cell proliferation compared to formulation control,MDA-MB-231 cancer cells [1]; listed as Lalistat,distinct inhibition of cell proliferation
same,expression of mesenchymal marker vimentin,MDA-MB-231 cancer cells [2]; qPCR,reduction in the expression
same,"expression of (tumor) stem cell markers (ALDH1, CD44, ratio CD44/CD24)",MDA-MB-231 cancer cells [2]; qPCR normalized to GAPDH or HRPT1,reduction in the expression
same,PD-L1 expression on cancer cells,[3],reduced PD-L1 expression
